The values below come from article PMC4681449 (Molecular microbiology, 2015).

The target of the assay is CjArsP (Campylobacter jejuni, UniProt B5LWZ8). It counts as biochemical.

Structures are written as SMILES.

CjArsP, sequence (B5LWZ8 1-315): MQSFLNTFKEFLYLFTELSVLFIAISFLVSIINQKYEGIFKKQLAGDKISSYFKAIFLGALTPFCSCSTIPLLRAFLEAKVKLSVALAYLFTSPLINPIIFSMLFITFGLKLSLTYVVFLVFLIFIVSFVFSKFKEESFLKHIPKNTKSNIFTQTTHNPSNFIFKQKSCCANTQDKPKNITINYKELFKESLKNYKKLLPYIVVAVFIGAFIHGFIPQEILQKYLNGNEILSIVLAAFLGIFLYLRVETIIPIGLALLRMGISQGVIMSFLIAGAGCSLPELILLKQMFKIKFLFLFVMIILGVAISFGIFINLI

On to `C[As](O)O` [MAs(III), methylarsenite], for which the “uptake into everted membrane vesicles, As by ICP-MS” value is “Everted membrane vesicles from cells expressing CjarsP accumulated MAs(III) when NADH was supplied”.
